Source: US10570099B2, “Salts of an epidermal growth factor receptor kinase inhibitor” (Celgene CAR LLC, priority 2012, dated 2020)

Experiments:
[1] = 1 week stability of primary screen salts at 40° C./75% RH and 80° C. (open vials, XRPD); assay type: physicochemical
Protocol: (open vials). TGA was carried out after the stability studies for samples containing sufficient material.

[2] = Hygroscopicity judged from TGA / water retained after drying; assay type: physicochemical
Protocol: For thermogravimetric analysis (TGA), approximately 5-10 mg of material was accurately weighed into an open aluminium pan and loaded into a simultaneous thermogravimetric/differential thermal analyser (TG/DTA) and held at room temperature. The sample was then heated at a rate of 10° C./min from 25° C. to 300° C. during which time the change in sample weight was recorded along with any differential thermal events (DTA). Nitrogen was used as the purge gas, at a flow rate of 100 cm^3/min.

[3] = Dog PK Study 2 (gastric pH adjustment, food effect); assay type: in vivo, beagle dogs; conditions: dogs, oral, 30 mg/kg QD, both low and high gastric pH conditions
Protocol: Compound 1 free base and compound 2, as the Form I monohydrobromide (HBr) salt, were evaluated in a cross-over dog PK study in which male dogs were pre-treated with either pentagastrin (to decrease gastric pH) or famotidine (to increase gastric pH) prior to oral dosing to control gastric pH. In addition, the effect of food on the systemic exposure to compound 1 was also evaluated in dogs receiving Form I HBr with pentagastrin pre-treatment. Compound 1 free base capsule consisted of compound 1 free base in Vitamin E TPGS and PEG 400 filled into a capsule. The Form I hydrobromide salt capsule consisted of Form I HBr alone filled into a capsule.
There was a minimum 6-day washout between dosing. On the day of dosing under fed condition, dogs were given 60 gram of a high fat diet (Harlan Teklad 2027C) and allowed to consume all of the food within 15-20 minutes. The animals were given a 10-minute rest period and then the capsule doses were administered. Plasma samples were collected at pre-dose and 0.5, 1, 2, 4, 6, 8, 12 and 24 hours post dose.

[4] = Dynamic vapour sorption (DVS); assay type: physicochemical
Protocol: For dynamic vapour sorption (DVS), approximately 10-20 mg of sample was placed into a wire mesh vapour sorption balance pan and loaded into a DVS-1 dynamic vapour sorption balance by Surface Measurement Systems. The sample was subjected to a ramping profile from 20-90% relative humidity (RH) at 10% increments, maintaining the sample at each step until a stable weight had been achieved (99.5% step completion). After completion of the sorption cycle, the sample was dried using the same procedure, but all the way down to 0% RH and finally taken back to the starting point of 20% RH. The weight change during the sorption/desorption cycles were plotted, allowing for the hygroscopic nature of the sample to be determined.

Compound: Br.C=CC(=O)Nc1cccc(Nc2nc(Nc3ccc(N4CCN(C(C)=O)CC4)cc3OC)ncc2C(F)(F)F)c1 [Form I hydrobromide salt]
- Stability 40° C./75% RH (open conditions) [1]: No form change, slight
- Stability 80° C. (open conditions) [1]: No Form change.
- hygroscopicity (TGA, water retained at ambient conditions) [2]: slightly hygroscopic
- compound 1 exposure compared to the free base form [3]: significantly higher
- post DVS XRPD analysis (polymorphic form) ([4]; after DVS cycles, listed as hydrobromide salt): remain consistent
- water uptake (DVS) ([4]; between 20 and 70% RH): 0.97%
